Experimental data reported in PMC4259358, “Functional Characterization of Nuclear Localization and Export Signals in Hepatitis C Virus Proteins and Their Role in the Membranous Web” (PLoS ONE, 2014).
Ends that are not written are not given here.

Assays:
[1] = tested on: IPO5 (importin β3/kap β3); assay: HCV genotype 1 peptide array probed with Huh7.5 cell lysate; type: binding; conditions: array of 15 residue peptides (8 residue overlaps), Huh7.5 lysate, anti-IPO5 antibody; a peptide bound
Method: (§1) However, various HCV proteins contain putative NLSs and NESs, [41], [53]. To identify potential interactions between cellular NTFs and HCV proteins, we designed a peptide array spanning the entire HCV genotype 1 consensus polyprotein sequence. These arrays were incubated with or without cell lysates and then probed using specific antibodies for components of the nuclear transport machinery. We detected binding of IPOA5 (importin α5/kap α1), IPO5 (importin β3/kap β3) and XPO1 (CRM1), but not IPO1 (importin β1/kap β1), to eleven distinct regions within HCV proteins (Fig. 1A, Table 1). All of the antibodies were also tested by western blotting of cell lysates to validate that they detected the corresponding NTF (Fig. 1B).
(§2) Figure 1 Identification of sequences within the HCV polyprotein that bind nuclear transport factors. (A) HCV genotype 1 peptide arrays consisting of 15 residue peptides (with 8 residue overlaps) spanning the complete HCV polypeptide were incubated with Huh7.5 cells lysates. Bound NTFs were detected using antibodies specific for the indicated NTF. Control peptide arrays were incubated with only NTF-specific antibodies. The different colored regions of the array represent peptides derived from different HCV proteins (see schematic). The last four peptides on the array are additional sequences which some of the HCV strains have in their polyproteins at the C terminus. (B) The same lysate used to probe the peptide arrays was also analyzed by western blotting to detect the indicated NTFs and assess the specificities of the antibodies. (C) Schematic summary of the localization of the NTF binding sites on the indicated HCV proteins.
(§3) A consensus sequence of HCV Genotype 1 polyprotein was used to design consecutive fifteen amino-acid residue peptides with eight residue overlaps along the complete polyprotein sequence. Peptides were synthesised by Intavis Bioanalytical Instruments (Koeln, Germany) using a CelluSpots peptide array synthesis technology. Peptide arrays were incubated in blocking buffer (TBS containing 0.05% tween 20 (v/v) and 10% skim milk (g/v)) overnight at 4°C on a gentle shaker. Following the blocking, the peptide arrays were washed three times with washing buffer (TBS containing 0.05% tween 20 (v/v)) for 5 min at room temperature on a gentle shaker. The peptide arrays were then incubated for 4 h with cell lysate from two T-75 flasks of fully confluent cells lysed by lysis buffer (10 mM Tris-HCl, pH 7.5, 150 mM NaCl, 2 mM EDTA, 0.1% Triton-X100, 1 mM PMSF, 2 µg/ml aprotinin, 2 µg/ml leupeptin and 0.1 units/µl RNasin) mixed with blocking buffer (ratio 1∶1 v/v) and incubated at room temperature on a gentle shaker. Following this incubation, peptide arrays were rinsed with washing buffer for 30 sec and then washed five times in washing buffer and each wash lasted for 5 min at room temperature on a gentle shaker. Following washing, the peptide arrays were incubated with the primary antibody as indicated in Fig. 1 (1∶100 dilution) for 4 h at room temperature on a gentle shaker. Arrays were then rinsed, washed as described above, and incubated with a complementary HRP conjugated secondary antibody (1∶1000) for 2 h at room temperature on a gentle shaker. The peptide arrays were then rinsed and washed as described above followed by initiation of HRP chemiluminescence with ECL detection reagent (GE Healthcare, RPN2106) and the signal was detected using Fuji RX film (Fujifilm, 47410 08399).

[2] = tested on: IPOA5 (importin α5/kap α1); assay: as above; type: binding; conditions: array of 15 residue peptides (8 residue overlaps), Huh7.5 lysate, anti-IPOA5 antibody; a peptide bound
Method: as §1, §2, §3

HEK293T cells = assay: Localization of nuclear transport signal-double GFP reporter in HEK293T cells; type: cell-based; design: key: +++ for strong; ++ for moderate; + for weak; − for no localization; conditions: double GFP cargo, 24 h post transfection, fluorescence quantified with ImageJ (S6, S7 Figures); NES/SEN on SV40 NLS double GFP
Description: To determine whether NTF binding sites found in the HCV proteins were functional nuclear transport signals, we constructed reporter proteins each consisting of one of the HCV proteins NTF binding sites followed by two C-terminal, tandemly repeated GFP molecules. The double GFP moieties were required to keep the reporter from entering the nucleus, since a single GFP is small enough to diffuse freely through NPCs, [35]. As controls, constructs containing the reversed amino-acid residue sequence of the potential NLS (SLN) were also examined using the double GFP reporter assay (S5 Figure). These SLN reporters were predicted to not accumulate in the nucleoplasm. In addition, reporters to examine the functionality of the potential XPO1 binding domains were also constructed. These reporters consist of an SV40 NLS and a double GFP molecule followed by one of the various potential NESs at the C-terminus (S5 Figure). In the absence of a functional NES, this reporter will accumulate in the nucleus. However, a functional NES is predicted to export the reporter, leading to increased steady-state levels of the reporter in the cytoplasm.
Figure 4 Functionality of the putative nuclear transport signals in cells. Cells were transfected by the vectors encoding a nuclear transport reporter consisting of a tandemly repeated double GFP fused to the indicated C-terminal nuclear transport signal (panels A-N). At 24 h following transfection, cells were fixed and stained with Hoechst to visualize the nucleus. Cells were examined using a Zeiss inverted Axiovert 200 M microscope to assess the localization of the GFP (green) and its relationship to the nucleus (blue). A hashed yellow square demarcates the magnified area shown in the right-most image of each panel. Fluorescent intensity was quantified using ImageJ v. […] Analysis of the reverse sequences of each transport signal as well as the mutant SV40 NLS was also performed and the results are shown in S7 Figure.
Nuclear transport signals-double GFP constructs were transfected into HEK293T cells using lipofectamine 2000. At 24 h post transfection cells were fixed, stained, and visualized for localization of the GFP. For detailed information see S1 Methods.
Nuclear transport signal-double GFP constructs were transfected into HEK293T cells using lipofectamine 2000 reagent (Invitrogen, 11668019). At 24 h post transfection cells were fixed with 3.76% formaldehyde at room temperature (Sigma, F8775-500ML) for 8 min then permeabilized in 0.2% Triton X-100 (VWR, CA97062-208) for 2 min. Cells were washed three times with X1 PBS and were stained with Hoechst 1:5000 in X1 PBS for 5 min followed by three washes with X1 PBS. The cells were visualized using a Zeiss inverted Axiovert 200M microscope with a 20x/0.8 objective lens to examine localization of the GFP. At least ten random fields of cells were imaged for each combination. Channels were merged using ImageJ software (National Institutes of Health). Photoshop Elements 10 (Adobe) software was used to adjust brightness and contrast levels for individual images and to assemble images into figures.

IPOA5 = target: T1, IPOA5 (Homo sapiens, UniProt P52294); assay: biochemical; type: binding
T1 construct: Expression and purification of full length IPOA5, IPO5 were perform according to methods described previously; His tag; made in house; host or cells: Escherichia coli BL21(DE3), pET21 vector

XPO1 (CRM1) = assay: HCV genotype 1 peptide array probed with Huh7.5 cell lysate; type: binding; conditions: array of 15 residue peptides (8 residue overlaps), Huh7.5 lysate, anti-XPO1 antibody; a peptide bound
Method: as §1, §2, §3

IPO5 = target: T2, IPO5 (Homo sapiens, UniProt O00410); assay: biochemical; type: binding
T2 construct: Expression and purification of full length IPOA5, IPO5 were perform according to methods described previously; His tag; made in house; host or cells: Escherichia coli BL21(DE3), pET21 vector

JFH-1 HCV = type: cell-based, Hepatitis C virus; conditions: Huh7.5, JFH-1, 4 h at 4°C then 37°C; added at 2 h intervals; % NS5A-positive cells at 72 h PTS; Ezetimibe 30 µM, LMB 18 nM, BMS-986094 10 nM, DGAT 1 inhibitor 10 nM; n = 3
Method: Huh7.5 cells were infected with JFH-1 HCV and maintained at 4°C for 4 hours (h) to synchronize the cells before shifting the temperature to 37°C. Post temperature shift (PTS), infected cells were incubated for various lengths of times prior to the addition of peptides or known inhibitors of HCV at 2 h intervals. […] We deliberately selected the final time point of 72 h PTS to reflect the number of cells infected by a second round of infection. […] This would be reflected by the number of cells infected in the second round as measured at 72 h PTS.
In order to elucidate the time points in infection when the nuclear transport signals bearing peptides are functional, cells were synchronously infected and treated with the indicated peptides. Each time point (2 h intervals) represents a culture treated with the indicated reagent at the specified time post temperature shift (PTS) and initiation of HCV infection. […] (A) Known inhibitors of HCV production (Ezetimibe (30 µM), LMB (18 nM), BMS-986094 (10 nM) and DGAT 1 inhibitor (10 nM)) and control (Pen peptide 100 µM, DMSO 2%, no treatment, and no infection) were examined. […] Error bars represent ± standard deviation, n = 3.
For the time of addition experiments, cells were seeded at a density of 6.25×10^4 cells/well in a 96-well plate and infected with 0.1 genomic equivalents of serially passaged JFH-1 virus on ice: cells then were incubated at 4°C for 4 h.
Briefly, Huh7.5 cells were infected as described above and the test compounds were added to different wells at different time points before the temperature shift (-4 h and -2 h) and every 2 h after the temperature shift (0, 2, 4,…, 48 h). […] The infection levels were calculated by counting infected and total cells numbers in ten random fields for each condition. The non-treated cell infection level was normalized to 100% and all other infections were calculated based on that normalization.

T2 sequence (O00410 whole entry): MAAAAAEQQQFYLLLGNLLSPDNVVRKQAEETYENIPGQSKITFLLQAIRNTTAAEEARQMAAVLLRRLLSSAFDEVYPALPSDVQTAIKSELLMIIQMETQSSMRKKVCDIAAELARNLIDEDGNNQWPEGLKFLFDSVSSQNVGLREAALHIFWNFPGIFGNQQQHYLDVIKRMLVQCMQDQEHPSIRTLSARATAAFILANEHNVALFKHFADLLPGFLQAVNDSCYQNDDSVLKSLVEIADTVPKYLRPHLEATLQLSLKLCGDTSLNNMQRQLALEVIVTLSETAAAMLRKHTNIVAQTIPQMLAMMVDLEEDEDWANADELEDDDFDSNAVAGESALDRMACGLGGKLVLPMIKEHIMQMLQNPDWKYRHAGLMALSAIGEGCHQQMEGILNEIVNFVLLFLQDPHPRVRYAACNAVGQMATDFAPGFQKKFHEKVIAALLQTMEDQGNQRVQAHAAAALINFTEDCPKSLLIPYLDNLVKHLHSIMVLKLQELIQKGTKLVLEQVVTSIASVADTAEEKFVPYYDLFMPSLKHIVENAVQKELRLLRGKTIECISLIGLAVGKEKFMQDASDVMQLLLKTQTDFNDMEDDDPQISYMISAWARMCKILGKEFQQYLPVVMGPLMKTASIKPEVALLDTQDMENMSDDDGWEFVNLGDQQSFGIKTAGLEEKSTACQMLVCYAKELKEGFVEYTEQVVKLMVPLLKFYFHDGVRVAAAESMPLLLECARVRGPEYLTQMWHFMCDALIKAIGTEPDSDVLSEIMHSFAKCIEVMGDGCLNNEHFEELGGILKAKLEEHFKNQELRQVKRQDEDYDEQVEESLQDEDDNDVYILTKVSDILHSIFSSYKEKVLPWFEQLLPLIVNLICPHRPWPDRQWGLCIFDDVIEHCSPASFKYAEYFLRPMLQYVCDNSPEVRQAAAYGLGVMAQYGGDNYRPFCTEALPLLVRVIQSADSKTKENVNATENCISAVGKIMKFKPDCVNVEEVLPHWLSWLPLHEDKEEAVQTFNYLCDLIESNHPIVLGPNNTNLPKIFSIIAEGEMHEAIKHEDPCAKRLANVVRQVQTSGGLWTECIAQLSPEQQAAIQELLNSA
T1 sequence (P52294 whole entry): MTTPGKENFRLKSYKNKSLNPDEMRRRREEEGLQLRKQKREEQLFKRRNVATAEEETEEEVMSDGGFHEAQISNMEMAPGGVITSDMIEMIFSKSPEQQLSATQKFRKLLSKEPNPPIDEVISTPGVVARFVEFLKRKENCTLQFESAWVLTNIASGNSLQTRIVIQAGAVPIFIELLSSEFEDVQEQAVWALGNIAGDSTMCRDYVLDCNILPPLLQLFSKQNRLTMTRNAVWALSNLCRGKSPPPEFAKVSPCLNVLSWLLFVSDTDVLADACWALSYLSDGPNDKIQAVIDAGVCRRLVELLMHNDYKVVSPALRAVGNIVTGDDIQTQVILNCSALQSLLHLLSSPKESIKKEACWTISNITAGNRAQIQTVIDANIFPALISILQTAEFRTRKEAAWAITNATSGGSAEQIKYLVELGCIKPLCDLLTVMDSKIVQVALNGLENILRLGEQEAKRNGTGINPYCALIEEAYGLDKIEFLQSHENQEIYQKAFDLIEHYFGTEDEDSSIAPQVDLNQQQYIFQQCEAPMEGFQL

Compound: VPQDAVSRSQRRGRT [H18]
- Binds to IPO5 [1]: H18: 1481-[…]-1495
- Binding to IPOA5 [2]: H18: 1481-[…]-1495

Compound: PIIFSPMEKKVIVWG [F3]
- Binding to IPOA5 [2]: F3: 977-[…]-991

Compound: RKTKRNTNRRPEDVK [A2, HCV genotype 1 array peptide, core residues 9-23]
- Binds to IPO5 [1]: A2: 9-[…]-23
- Binding to IPOA5 [2]: A2: 9-[…]-23

Compound: TIFYQLWWILRALFLKYHPSLTLLILRQIKIWFQNRRMKWKK [NS2 SEN]
- Localization Cytoplasmic (HEK293T cells): −
- Localization Nuclear (HEK293T cells): +++

Compound: CC[C@H](C)[C@H](NC(=O)[C@H](CCCCN)NC(=O)[C@@H](NC(=O)[C@H](CCC(N)=O)NC(=O)[C@H](CCCNC(=N)N)NC(=O)[C@@H](NC(=O)[C@H](CCCCN)NC(=O)[C@H](CCCNC(=N)N)NC(=O)[C@H](CCCCN)NC(=O)[C@H](CCCCN)NC(=O)[C@H](CCCCN)NC(=O)[C@@H]1CCCN1)C(C)C)[C@@H](C)CC)C(=O)N[C@@H](Cc1c[nH]c2ccccc12)C(=O)N[C@@H](Cc1ccccc1)C(=O)N[C@@H](CCC(N)=O)C(=O)N[C@@H](CC(N)=O)C(=O)N[C@@H](CCCNC(=N)N)C(=O)N[C@@H](CCCNC(=N)N)C(=O)N[C@@H](CCSC)C(=O)N[C@@H](CCCCN)C(=O)N[C@@H](Cc1c[nH]c2ccccc12)C(=O)N[C@@H](CCCCN)C(=O)N[C@@H](CCCCN)C(=O)O [SV40 NLS, reference compound]
- Kd (IPOA5): 27.1 ± 4.23 nM

Compound: LPGFPFSIFLLALLS [A22, HCV genotype 1 array peptide, core residues 169-183]
- Binding to XPO1 (XPO1 (CRM1)): A22: 169-[…]-183

Compound: VTRRRRPPPRQIKIWFQNRRMKWKK [NS5A SLN]
- Localization Cytoplasmic (HEK293T cells): +++
- Localization Nuclear (HEK293T cells): −

Compound: FLLALLSCITVPVSA [A23, HCV genotype 1 array peptide, core residues 177-191]
- Binding to XPO1 (XPO1 (CRM1)): A23: 177-[…]-191

Compound: PARRRGDKRRQIKIWFQNRRMKWKK [NS3 NLS 1]
- Kd (IPO5): 33.8 ± 5.6 nM

Compound: MSTNPKPQRKTKRNT [A1, HCV genotype 1 array peptide, core residues 1-15]
- Binds to IPO5 [1]: A1: 1-[…]-15
- Binding to IPOA5 [2]: A1: 1-[…]-15

Compound: PPPRRRRTVRQIKIWFQNRRMKWKK [NS5A NLS]
- Kd (IPOA5): 7630 ± 259 nM
- Kd (IPO5): 32.3 ± 4.99 nM

Compound: RRRTVGLSESTISEA [M4]
- Binds to IPO5 [1]: M4: 2329-[…]-2343

Compound: PARRRGDKRGALLSP [F24]
- Binds to IPO5 [1]: F24: 1145-[…]-1159

Compound: KVIDTLTCGFADLMG [A16, HCV genotype 1 array peptide, core residues 121-135]
- Binding to XPO1 (XPO1 (CRM1)): A16: 121-[…]-135

Compound: TLLGQCLWWLCYLLT [E10]
- Binding to XPO1 (XPO1 (CRM1)): E10: 841-[…]-855

Compound: PSWGPTDPRHRSRNV [A14, HCV genotype 1 array peptide, core residues 105-119]
- Binds to IPO5 [1]: A14: 105-[…]-119

Compound: QPRGRRQPIPKDRRS [A8, HCV genotype 1 array peptide, core residues 57-71]
- Binds to IPO5 [1]: A8: 57-[…]-71
- Binding to IPOA5 [2]: A8: 57-[…]-71

Compound: RSQRRGRTTGRGRRQIKIWFQNRRMKWKK [NS3 NLS 2]
- Kd (IPOA5): 36.6 ± 7.13 nM
- Kd (IPO5): 35.8 ± 7.26 nM

Compound: PRHRSRNVGKRQIKIWFQNRRMKWKK [Core NLS 4]
- Kd (IPOA5): 518 ± 28.6 nM
- Kd (IPO5): 105 ± 31.1 nM

Compound: VTRNADVIPARRRGD [F23]
- Binds to IPO5 [1]: F23: 1137-[…]-1151

Compound: CC[C@H](C)[C@H](NC(=O)[C@H](CCCCN)NC(=O)[C@@H](NC(=O)[C@H](CCC(N)=O)NC(=O)[C@H](CCCNC(=N)N)NC(=O)CNC(=O)[C@H](Cc1c[nH]c2ccccc12)NC(=O)[C@@H](NC(=O)[C@@H](NC(=O)[C@@H](NC(=O)[C@H](CCCCN)NC(=O)[C@H](CCCCN)NC(=O)[C@H](CCC(=O)O)NC(=O)[C@H](CCSC)NC(=O)[C@@H]1CCCN1C(=O)[C@H](CO)NC(=O)[C@H](Cc1ccccc1)NC(=O)[C@@H](NC(=O)[C@@H](NC(=O)[C@@H]1CCCN1)[C@@H](C)CC)[C@@H](C)CC)C(C)C)[C@@H](C)CC)C(C)C)[C@@H](C)CC)C(=O)N[C@@H](Cc1c[nH]c2ccccc12)C(=O)N[C@@H](Cc1ccccc1)C(=O)N[C@@H](CCC(N)=O)C(=O)N[C@@H](CC(N)=O)C(=O)N[C@@H](CCCNC(=N)N)C(=O)N[C@@H](CCCNC(=N)N)C(=O)N[C@@H](CCSC)C(=O)N[C@@H](CCCCN)C(=O)N[C@@H](Cc1c[nH]c2ccccc12)C(=O)N[C@@H](CCCCN)C(=O)N[C@@H](CCCCN)C(=O)O [NS2 NLS]
- Kd (IPOA5): 79.3 ± 3.89 nM

Compound: O=C1[C@H](CC[C@H](O)c2ccc(F)cc2)[C@@H](c2ccc(O)cc2)N1c1ccc(F)cc1 [Ezetimibe]
- time of addition at which the ability to inhibit HCV infection is lost (JFH-1 HCV): 4–10 h PTS

Compound: KAPTPPPRRRRTVGL [M3]
- Binds to IPO5 [1]: M3: 2321-[…]-2335

Compound: IPKDRRSTGKAWGKP [A9, HCV genotype 1 array peptide, core residues 65-79]
- Binds to IPO5 [1]: A9: 65-[…]-79
- Binding to IPOA5 [2]: A9: 65-[…]-79

Compound: SQRRGRTGRGRQGTY [H19]
- Binds to IPO5 [1]: H19: 1489-[…]-1503
- Binding to IPOA5 [2]: H19: 1489-[…]-1503

Compound: GVYLLPRRGPRLGVR [A5, HCV genotype 1 array peptide, core residues 33-47]
- Binds to IPO5 [1]: A5: 33-[…]-47
- Binding to IPOA5 [2]: A5: 33-[…]-47

Compound: GWVIVKKEMPSFIIPRQIKIWFQNRRMKWKK [NS2 SLN]
- Localization Cytoplasmic (HEK293T cells): +++
- Localization Nuclear (HEK293T cells): −

Compound: RHRSRNVGKVIDTLT [A15, HCV genotype 1 array peptide, core residues 113-127]
- Binds to IPO5 [1]: A15: 113-[…]-127
